Tests used:
[1] = Metabolic stability in human liver microsomes; format: ADME, microsome; conditions: read-out: Stability
[2] = Cytotoxicity against human B cells assessed as ATP content at 30 uM by cell titer glo-based luminescence assay relative to control; conditions: read-out: Activity
[3] = target: T1, C-C chemokine receptor type 6 (Homo sapiens, UniProt P51684); assay: Inhibition of human CCR6 expressed in CHO cells assessed as decrease in CCL20-induced reduction of forskolin-stimulated cAMP accumulation preincubated for 30 mins followed agonist addition measured after 30 mins by HTRF assay; format: functional, cell-based
T1 sequence (P51684 whole entry): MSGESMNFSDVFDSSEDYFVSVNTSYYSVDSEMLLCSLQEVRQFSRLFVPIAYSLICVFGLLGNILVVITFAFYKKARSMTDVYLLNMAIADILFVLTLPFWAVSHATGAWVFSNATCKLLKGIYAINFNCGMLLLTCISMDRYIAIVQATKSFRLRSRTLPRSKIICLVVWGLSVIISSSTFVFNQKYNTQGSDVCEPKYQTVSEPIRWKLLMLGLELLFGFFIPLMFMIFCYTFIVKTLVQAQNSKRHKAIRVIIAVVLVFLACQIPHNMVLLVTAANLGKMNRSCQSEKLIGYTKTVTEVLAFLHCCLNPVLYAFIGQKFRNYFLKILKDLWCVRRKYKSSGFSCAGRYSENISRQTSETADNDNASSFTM

[4] = Solubility of the compound in water at pH 6.8; format: physicochemical
[5] = Solubility of the compound in buffer solution at pH 6.8; format: physicochemical
[6] = target: T2, C-C chemokine receptor type 1 (Homo sapiens, UniProt P32246); assay: Inhibition of human CCR1 expressed in CHO cells assessed as decrease in RANTES-induced reduction of forskolin-stimulated cAMP accumulation preincubated for 30 mins followed agonist addition measured after 30 mins by HTRF assay; format: functional, cell-based
T2 sequence (P32246 whole entry): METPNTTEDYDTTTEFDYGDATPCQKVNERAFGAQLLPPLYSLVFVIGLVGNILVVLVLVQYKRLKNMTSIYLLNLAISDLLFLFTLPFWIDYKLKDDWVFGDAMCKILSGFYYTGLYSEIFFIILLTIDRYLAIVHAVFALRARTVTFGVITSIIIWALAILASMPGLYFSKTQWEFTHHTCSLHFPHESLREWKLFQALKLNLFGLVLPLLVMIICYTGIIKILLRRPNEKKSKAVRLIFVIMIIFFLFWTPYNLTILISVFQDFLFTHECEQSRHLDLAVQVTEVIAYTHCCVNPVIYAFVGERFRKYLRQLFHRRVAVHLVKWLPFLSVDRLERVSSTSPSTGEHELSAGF

[7] = target: T3, C-C chemokine receptor type 7 (Homo sapiens, UniProt P32248); assay: Inhibition of human CCR7 expressed in CHO cells assessed as decrease in CCL19-induced reduction of forskolin-stimulated cAMP accumulation preincubated for 30 mins followed agonist addition measured after 30 mins by HTRF assay; format: functional, cell-based
T3 sequence (P32248 whole entry): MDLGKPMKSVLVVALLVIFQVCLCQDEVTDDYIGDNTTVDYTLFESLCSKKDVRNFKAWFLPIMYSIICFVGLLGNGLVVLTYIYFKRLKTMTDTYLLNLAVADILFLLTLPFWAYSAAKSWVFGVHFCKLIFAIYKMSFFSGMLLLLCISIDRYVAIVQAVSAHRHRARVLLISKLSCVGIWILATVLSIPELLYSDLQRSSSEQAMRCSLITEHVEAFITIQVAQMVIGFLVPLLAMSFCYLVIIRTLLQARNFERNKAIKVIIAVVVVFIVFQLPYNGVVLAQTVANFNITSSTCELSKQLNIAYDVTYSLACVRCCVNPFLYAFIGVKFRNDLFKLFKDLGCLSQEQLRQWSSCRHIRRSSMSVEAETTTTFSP

[8] = target: T4, C-C chemokine receptor type 6 (Macaca mulatta, UniProt H9YX08); assay: Inhibition of monkey CCR6 expressed in CHO cells assessed as decrease in CCL20-induced reduction of forskolin-stimulated cAMP accumulation preincubated for 30 mins followed agonist addition measured after 30 mins by HTRF assay; format: cell-based
T4 sequence (H9YX08 whole entry): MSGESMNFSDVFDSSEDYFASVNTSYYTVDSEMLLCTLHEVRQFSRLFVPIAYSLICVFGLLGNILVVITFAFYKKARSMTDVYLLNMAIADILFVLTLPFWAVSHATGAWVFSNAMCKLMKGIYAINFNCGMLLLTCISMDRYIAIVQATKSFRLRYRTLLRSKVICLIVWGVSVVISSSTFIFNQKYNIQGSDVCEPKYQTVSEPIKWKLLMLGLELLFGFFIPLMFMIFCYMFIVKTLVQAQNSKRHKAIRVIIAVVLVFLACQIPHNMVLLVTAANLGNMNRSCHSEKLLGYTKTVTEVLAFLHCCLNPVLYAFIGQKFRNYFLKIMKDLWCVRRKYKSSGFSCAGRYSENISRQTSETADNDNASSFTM

[9] = Oral bioavailability in cynomolgus monkey at 1 mg/kg; format: ADME, organism-based, Macaca fascicularis; conditions: in vivo
[10] = target: T5, Voltage-gated inwardly rectifying potassium channel KCNH2 (Homo sapiens, UniProt Q12809); assay: Inhibition of human ERG in presence of BSA
CYP2D6 = CYP2D6 (Homo sapiens, UniProt P10635); assay: Inhibition of CYP2D6 (unknown origin) at 10 uM relative to control; format: ADME
[11] = Volume of distribution at steady state in cynomolgus monkey at 0.1 mg/kg, iv or 1 mg/kg, po; format: ADME, organism-based, Macaca fascicularis; conditions: in vivo, read-out: Vdss
CYP3A4 = CYP3A4 (Homo sapiens, UniProt P08684); assay: Inhibition of CYP3A4 (unknown origin) at 10 uM relative to control; format: ADME
CYP2C8 = target: T6, CYP2C8 (Homo sapiens, UniProt P10632); assay: Inhibition of CYP2C8 (unknown origin) at 10 uM relative to control; format: ADME
T6 sequence (P10632 whole entry): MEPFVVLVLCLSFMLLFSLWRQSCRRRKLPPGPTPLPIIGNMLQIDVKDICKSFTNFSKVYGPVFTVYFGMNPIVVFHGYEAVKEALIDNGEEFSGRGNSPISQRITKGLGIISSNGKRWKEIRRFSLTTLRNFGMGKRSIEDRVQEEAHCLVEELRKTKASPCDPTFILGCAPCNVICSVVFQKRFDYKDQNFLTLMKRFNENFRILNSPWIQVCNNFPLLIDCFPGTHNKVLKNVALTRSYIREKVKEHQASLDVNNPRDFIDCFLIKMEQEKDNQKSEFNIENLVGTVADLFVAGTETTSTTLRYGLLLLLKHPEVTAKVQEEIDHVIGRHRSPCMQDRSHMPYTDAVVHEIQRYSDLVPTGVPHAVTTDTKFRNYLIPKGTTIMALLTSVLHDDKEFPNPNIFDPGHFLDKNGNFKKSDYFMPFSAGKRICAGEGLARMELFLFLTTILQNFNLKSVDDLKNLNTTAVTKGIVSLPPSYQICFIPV

[12] = Clearance in cynomolgus monkey at 0.1 mg/kg, iv or 1 mg/kg, po; format: ADME, organism-based, Macaca fascicularis; conditions: in vivo
CYP1A2 = target: T7, CYP1A2 (Homo sapiens, UniProt P05177); assay: Inhibition of CYP1A2 (unknown origin) at 10 uM relative to control; format: ADME
T7 sequence (P05177 whole entry): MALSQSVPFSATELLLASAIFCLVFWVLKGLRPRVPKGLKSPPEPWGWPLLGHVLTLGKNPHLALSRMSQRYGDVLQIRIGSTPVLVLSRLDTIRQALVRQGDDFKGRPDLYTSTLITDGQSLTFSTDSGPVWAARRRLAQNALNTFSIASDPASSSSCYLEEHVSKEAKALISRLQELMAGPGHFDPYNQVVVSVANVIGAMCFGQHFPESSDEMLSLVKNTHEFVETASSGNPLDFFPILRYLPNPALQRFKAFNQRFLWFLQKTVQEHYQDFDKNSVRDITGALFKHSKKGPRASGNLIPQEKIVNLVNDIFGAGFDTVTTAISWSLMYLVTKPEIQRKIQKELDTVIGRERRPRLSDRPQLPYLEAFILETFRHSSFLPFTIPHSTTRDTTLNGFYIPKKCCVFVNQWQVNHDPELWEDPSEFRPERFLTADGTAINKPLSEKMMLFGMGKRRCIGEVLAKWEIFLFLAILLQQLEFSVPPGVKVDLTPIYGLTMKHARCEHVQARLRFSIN

CYP2C9 = CYP2C9 (Homo sapiens, UniProt P11712); assay: Inhibition of CYP2C9 (unknown origin) at 10 uM relative to control; format: ADME
[13] = Fraction unbound in cynomolgus monkey plasma at 0.1 mg/kg, iv or 1 mg/kg, po; format: ADME, organism-based, Macaca fascicularis
[14] = AUC (0 to 24 hrs) in cynomolgus monkey at 1 mg/kg, po; format: ADME, organism-based, Macaca fascicularis; design: dose 1 mg/kg, time < 24 hr, route oral; conditions: in vivo
[15] = target: T5, Voltage-gated inwardly rectifying potassium channel KCNH2; assay: Inhibition of human ERG in absence of BSA
[16] = AUC (0 to 24 hrs) in cynomolgus monkey at 0.1 mg/kg, iv; format: ADME, organism-based, Macaca fascicularis; design: dose 0.1 mg/kg, time < 24 hr, route intravenous; conditions: in vivo

T5 sequence (Q12809 whole entry): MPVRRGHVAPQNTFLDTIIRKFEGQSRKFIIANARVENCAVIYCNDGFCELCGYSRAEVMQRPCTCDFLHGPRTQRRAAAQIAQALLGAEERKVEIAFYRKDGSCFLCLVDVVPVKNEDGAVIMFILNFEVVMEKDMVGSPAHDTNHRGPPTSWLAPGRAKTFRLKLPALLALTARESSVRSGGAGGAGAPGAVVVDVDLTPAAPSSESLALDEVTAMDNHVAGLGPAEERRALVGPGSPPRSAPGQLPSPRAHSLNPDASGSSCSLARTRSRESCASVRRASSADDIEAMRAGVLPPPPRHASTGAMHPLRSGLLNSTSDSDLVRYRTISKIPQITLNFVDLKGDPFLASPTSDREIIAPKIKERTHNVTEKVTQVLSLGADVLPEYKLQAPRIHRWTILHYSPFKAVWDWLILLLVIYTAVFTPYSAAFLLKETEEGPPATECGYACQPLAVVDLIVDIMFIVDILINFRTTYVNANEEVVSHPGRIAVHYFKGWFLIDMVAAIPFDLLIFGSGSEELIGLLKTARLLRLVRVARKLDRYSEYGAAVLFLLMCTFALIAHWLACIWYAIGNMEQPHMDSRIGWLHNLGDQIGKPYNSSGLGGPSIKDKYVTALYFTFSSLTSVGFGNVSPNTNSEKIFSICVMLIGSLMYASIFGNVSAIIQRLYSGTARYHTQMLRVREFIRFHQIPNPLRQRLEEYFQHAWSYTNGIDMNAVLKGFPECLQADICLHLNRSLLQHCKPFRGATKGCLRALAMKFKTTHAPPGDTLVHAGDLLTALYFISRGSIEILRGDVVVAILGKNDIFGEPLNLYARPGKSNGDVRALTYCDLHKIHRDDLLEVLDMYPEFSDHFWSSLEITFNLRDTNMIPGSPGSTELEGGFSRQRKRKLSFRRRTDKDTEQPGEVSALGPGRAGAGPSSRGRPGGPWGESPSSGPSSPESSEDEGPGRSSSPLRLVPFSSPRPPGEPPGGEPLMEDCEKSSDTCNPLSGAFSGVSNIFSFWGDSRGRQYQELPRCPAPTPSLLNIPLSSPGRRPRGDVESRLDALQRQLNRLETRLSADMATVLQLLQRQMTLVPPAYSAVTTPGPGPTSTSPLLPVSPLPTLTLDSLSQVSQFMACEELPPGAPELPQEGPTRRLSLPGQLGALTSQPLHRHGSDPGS
Chain of CYP3A4 (P08684 whole entry): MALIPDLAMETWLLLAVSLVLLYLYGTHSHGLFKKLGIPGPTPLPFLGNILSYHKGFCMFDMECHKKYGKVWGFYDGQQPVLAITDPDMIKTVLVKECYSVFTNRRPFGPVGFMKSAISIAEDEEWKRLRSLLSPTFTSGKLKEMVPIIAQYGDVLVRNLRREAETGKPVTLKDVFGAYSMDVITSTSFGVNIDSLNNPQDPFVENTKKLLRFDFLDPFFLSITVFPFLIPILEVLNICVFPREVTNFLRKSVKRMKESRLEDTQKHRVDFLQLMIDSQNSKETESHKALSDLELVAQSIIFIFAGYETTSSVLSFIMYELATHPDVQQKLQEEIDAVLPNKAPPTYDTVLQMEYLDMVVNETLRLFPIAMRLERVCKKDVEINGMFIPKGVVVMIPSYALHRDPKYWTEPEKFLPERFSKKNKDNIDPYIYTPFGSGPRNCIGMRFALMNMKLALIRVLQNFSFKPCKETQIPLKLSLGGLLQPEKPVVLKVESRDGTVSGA
Chain of CYP2D6 (P10635 whole entry): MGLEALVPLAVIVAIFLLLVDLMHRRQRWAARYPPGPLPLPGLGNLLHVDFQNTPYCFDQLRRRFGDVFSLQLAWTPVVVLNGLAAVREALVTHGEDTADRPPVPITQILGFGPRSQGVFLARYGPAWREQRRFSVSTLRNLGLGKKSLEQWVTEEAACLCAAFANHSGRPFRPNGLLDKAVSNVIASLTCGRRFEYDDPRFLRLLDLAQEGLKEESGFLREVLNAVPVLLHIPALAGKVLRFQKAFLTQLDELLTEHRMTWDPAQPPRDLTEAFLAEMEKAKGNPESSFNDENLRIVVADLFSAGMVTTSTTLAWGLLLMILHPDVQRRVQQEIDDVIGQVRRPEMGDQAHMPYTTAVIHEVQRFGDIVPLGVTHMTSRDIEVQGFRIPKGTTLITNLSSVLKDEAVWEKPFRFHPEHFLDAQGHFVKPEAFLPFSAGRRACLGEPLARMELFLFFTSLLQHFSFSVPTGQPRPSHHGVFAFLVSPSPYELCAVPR
Chain of CYP2C9 (P11712 whole entry): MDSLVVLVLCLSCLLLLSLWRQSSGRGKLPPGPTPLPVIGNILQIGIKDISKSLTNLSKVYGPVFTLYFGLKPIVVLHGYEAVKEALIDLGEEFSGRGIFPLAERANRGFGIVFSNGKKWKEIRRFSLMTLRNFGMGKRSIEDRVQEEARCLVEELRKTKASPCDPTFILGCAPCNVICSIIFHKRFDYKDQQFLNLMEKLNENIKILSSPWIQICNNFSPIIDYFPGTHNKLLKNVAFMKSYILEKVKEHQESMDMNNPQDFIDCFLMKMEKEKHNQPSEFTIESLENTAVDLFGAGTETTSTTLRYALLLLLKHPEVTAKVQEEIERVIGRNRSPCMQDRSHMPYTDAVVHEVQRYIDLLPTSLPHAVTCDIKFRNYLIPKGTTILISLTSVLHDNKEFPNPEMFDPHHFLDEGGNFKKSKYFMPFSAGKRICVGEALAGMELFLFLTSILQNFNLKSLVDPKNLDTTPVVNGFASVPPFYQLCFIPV

SMILES | IC50 [3] | IC50 [6] | IC50 [7] | further results
COc1ccc(S(=O)(=O)N2CCC(Nc3ccc(C#N)cc3)CC2)cc1 | 1.9 µM |  |  | microsomal CLint [1]: 69 µL/min/mg; viability at 30 µM [2]: 44.9%
COc1ccc(S(=O)(=O)N2CCC(Nc3ccc(C#N)cn3)CC2)cc1 | 2.5 µM |  |  | microsomal CLint [1]: 19 µL/min/mg; viability at 30 µM [2]: 72.7%
CC(C)(C)c1ccc(S(=O)(=O)N2CCC(Nc3ccc(C#N)cn3)CC2)cc1 |  |  |  | solubility [4]: < 0.1 µg/mL; solubility [5]: < 0.1 µg/mL
N#Cc1ccc(-c2ccc(S(=O)(=O)[C@H]3CC[C@H](Nc4ccc(C(F)(F)F)cn4)CC3)cc2)cc1 |  | > 30 µM | > 30 µM | 
NC(=O)c1ccc(-c2ccc(S(=O)(=O)[C@H]3CC[C@H](Nc4ccc(C(F)(F)F)cn4)CC3)cc2)cn1 |  | > 30 µM | 18 µM | 
COc1ccc(S(=O)(=O)N2CCC(Nc3cccc(C#N)n3)CC2)cc1 | 7.4 µM |  |  | 
CC(=O)Nc1ccc(S(=O)(=O)N2CCC(Nc3ccc(C#N)cn3)CC2)cc1 | > 30 µM |  |  | 
NC(=O)c1cc(-c2ccc(S(=O)(=O)[C@H]3CC[C@H](Nc4ccc(C(F)(F)F)cn4)CC3)cc2)ccn1 |  | > 30 µM | 9.4 µM | bioavailability [9]: 65%; inhibition (INH) [10]: < 50%; inhibition at 10 µM (CYP2D6): < 50%; Vd [11]: 0.704 L/kg; inhibition at 10 µM (CYP3A4): < 50%; inhibition at 10 µM (CYP2C8): < 50%; clearance [12]: 0.066 L/h/kg; inhibition at 10 µM (CYP1A2): < 50%; inhibition at 10 µM (CYP2C9): 51%; fraction unbound [13]: 0.01; AUC(0-t) at 24 h [14]: 10.1 µg·h/mL; inhibition (INH) [15]: < 50%; AUC(0-t) at 24 h [16]: 1.55 µg·h/mL
COc1ccc(NC2CCN(S(=O)(=O)c3ccc(OC)cc3)CC2)cc1 | > 30 µM |  |  | 
NC(=O)c1ccc(-c2ccc(S(=O)(=O)[C@H]3CC[C@H](Nc4ccc(C(F)(F)F)cn4)CC3)cc2)cc1 |  | > 30 µM | > 30 µM | 
COc1ccc(S(=O)(=O)N2CCC(Nc3cc(C#N)ccn3)CC2)cc1 | > 30 µM |  |  | 
COc1ccc(S(=O)(=O)N2CCC(Nc3ccc(C#N)cn3)C2)cc1 (stereo not given) | > 30 µM |  |  | 

The next lines start with results.

IC50 [3] | IC50 [6] | IC50 [7] | SMILES | further results
> 30 µM |  |  | Cc1cccc(S(=O)(=O)N2CCC(Nc3ccc(C#N)cn3)CC2)c1 | 
0.29 µM | > 30 µM | > 30 µM | N#Cc1ccc(NC2CCN(S(=O)(=O)c3ccc(-c4ccccc4)cc3)CC2)nc1 | IC50 [8]: 0.28 µM
3.1 µM | > 30 µM | > 30 µM | Cc1ccc(S(=O)(=O)N2CCC(Nc3ccc(C#N)cn3)CC2)cc1 | IC50 [8]: 1.3 µM
> 30 µM |  |  | N#Cc1ccc(NC2CCN(S(=O)(=O)c3cccc(-c4ccccc4)c3)CC2)nc1 | 
1.5 µM |  |  | N#Cc1ccc(NC2CCN(S(=O)(=O)c3ccc(Cl)cc3)CC2)nc1 | 
